Test system: T1, Horseradish peroxidase (HRP); soluble-HRP
T1 construct: gene PRXC1A; class III plant peroxidase
Assay: peroxidase assay, absorbance at […] nm, Lineweaver-Burk plot
Format: biochemical, Armoracia rusticana
Conditions: free soluble enzyme; co-substrate H2O2 (8 mM in the standard assay); 20 mM sodium acetate pH 5.5; temperature not stated

- Km: 35.7 mM
Compound: COc1ccccc1O [guaiacol]
